In patent US10610125B2, “Methods and compositions for cell-proliferation-related disorders” (Agios Pharmaceuticals, Inc., priority 2009, dated 2020):
Where “and” joins values, the source holds several entries; their conditions need not be identical. Identical values can stand only once. Like-named read-outs stand apart in the source and are kept apart here. Each block holds one compound with its values, some of them ahead of it.

What was measured:
[1] = biological target: ICDH1 R132H (Homo sapiens (Human), UniProt O75874, R132H); assay: IDH1 R132H inhibition assay (NADPH/aKG, resazurin to resorufin fluorescence); type: biochemical; conditions: for IC50 Ratio (40/4): ratio of IC50 at 40 uM to 4 uM NADPH; for IC50: IDH1 R132H
Description: Assays were conducted in a volume of 76 ul assay buffer (150 mM NaCl, 10 mM MgCl2, 20 mM Tris pH 7.5, 0.03% bovine serum albumin) as follows in a standard 384-well plate: To 25 ul of substrate mix ([…], 2 mM aKG), 1 ul of test compound was added in DMSO. […] The reaction was incubated for 50 minutes at room temperature, then 25 ul of detection mix (30 uM resazurin, […]) was added and the mixture further incubated for 5 minutes at room temperature. The conversion of resazurin to resorufin was detected by fluorescent spectroscopy at Ex544 Em590 c/o 590.
(§1) The selectivity between wild type vs mutant could be >20-fold.

[2] = biological target: T1, IDH1 wt (Homo sapiens (Human), UniProt O75874); assay: IDH1 wt assay for inhibitor selectivity (1×Km of NADPH); type: biochemical; conditions: 1x Km NADPH; for IC50: read-out: IDH1wt IC50 @ 1x Km
Description: as §1

[3] = biological target: T2, IDH1 wild-type (Homo sapiens (Human), UniProt O75874); assay: Oxidative decarboxylation of isocitrate to α-KG by IDH1 wild-type (340 nm); type: biochemical; conditions: for effect on oxidative decarboxylation of isocitrate by wild-type ICDH1: added in a titration series
Description: (§2) In these reactions, the substrate was varied while the cofactor was held constant at 500 uM. All reactions were performed in 150 mM NaCl, 20 mM Tris-Cl, pH 7.5, 10% glycerol, and 0.03% (w/v) BSA). Reaction progress was followed by spectroscopy at 340 nM monitoring the change in oxidation state of the cofactor. Sufficient enzyme was added to give a linear change in absorbance for 10 minutes.
(§3) A well-known regulatory mechanism for control of metabolic enzymes is feedback inhibition, in which the product of the reaction acts as a negative regulator for the generating enzyme.

[4] = biological target: T3, IDH1 R132C (Homo sapiens (Human), UniProt O75874, R132C); assay: IDH1/2 activity assay, forward reaction (isocitrate, NADP+), stopped-flow, IDH1 R132C; type: biochemical
Description: (§4) Enzymatic binding constants were determined using curve fitting algorithms to standard kinetic models with the Sigmaplot software package (Systat Software, San Jose, Calif.). For determination of kcat, enzyme was incubated with 5×Km of substrate and cofactor; consumption of NADPH or NADP was determined by a change in the OD340 over time. In both cases an extinction coefficient of 6200 M^−1 cm^−1 was used for NADPH.

[5] = biological target: T4, IDH1 R132S (Homo sapiens (Human), UniProt O75874, R132S); assay: Reduction of alpha-ketoglutarate with NADH by IDH1 R132S; type: biochemical; conditions: NADH 0.5 mM, alpha-Ketoglutarate 5 mM, R132S 30 ug/ml
Description: (§5) In order to evaluate the ability of the mutant enzymes to utilize NADH in the reduction of alpha-ketoglutarate, the following experiment was conducted.

[6] = biological target: T1, IDH1 wt; assay: Reduction of alpha-ketoglutarate with NADH by IDH1 wild type; type: biochemical; conditions: IDH1 wt 5 ug/ml, NADH 0.5 mM
Description: as §5

[7] = biological target: T5, IDH1 R132H (Homo sapiens (Human), UniProt O75874, R132H); assay: Reduction of alpha-ketoglutarate with NADH by IDH1 R132H; type: biochemical; conditions: R132H 60 ug/ml, NADH 0.5 mM
Description: as §5

[8] = biological target: T3, IDH1 R132C; assay: IDH1/2 activity assay, reverse reaction (α-KG, NADPH), stopped-flow, IDH1 R132C; type: biochemical; conditions: Reductive (→ NADP+)
Description: as §4

[9] = biological target: T5, IDH1 R132H; assay: Oxidative decarboxylation of isocitrate to α-KG by IDH1 R132H (340 nm); type: biochemical
Description: as §2, §3

[10] = biological target: T4, IDH1 R132S; assay: Oxidative decarboxylation of isocitrate to α-KG by IDH1 R132S (340 nm); type: biochemical
Description: as §2, §3

[11] = biological target: T2, IDH1 wild-type; assay: IDH1/2 activity assay, forward reaction (isocitrate, NADP+), stopped-flow, IDH1 wild-type; type: biochemical; conditions: Oxidative (→ NADPH), WT
Description: as §4

[12] = test system: glioblastoma multiforme; conditions: cited from earlier work
[13] = test system: glioblastoma multiforme; conditions: cited from earlier work; remark: listed apart in the source
[14] = test system: recurrent glioma; conditions: recurrent glioma patients; cited from earlier work
[15] = biological target: T5, IDH1 R132H; assay: Reduction of α-KG with NADPH by IDH1 R132H; type: biochemical
Description: as §2, with “reactions,” for “reactions, the”, “50” for “150”, “potassium phosphate buffer,” for “NaCl, 20 mM Tris-Cl,”, “6.5,” for “7.5,”, “glycerol,” for “glycerol, and”, “BSA, 5 mM MgCl2, and 40 mM sodium hydrocarbonate.” for “BSA).”

[16] = biological target: T4, IDH1 R132S; assay: Reduction of α-KG with NADPH by IDH1 R132S; type: biochemical
Description: as §2, with “reactions,” for “reactions, the”, “50” for “150”, “potassium phosphate buffer,” for “NaCl, 20 mM Tris-Cl,”, “6.5,” for “7.5,”, “glycerol,” for “glycerol, and”, “BSA, 5 mM MgCl2, and 40 mM sodium hydrocarbonate.” for “BSA).”

[17] = biological target: T2, IDH1 wild-type; assay: Reduction of α-KG with NADPH by IDH1 wild-type; type: biochemical; conditions: 40 ug/ml enzyme
Description: as §2, with “reactions,” for “reactions, the”, “50” for “150”, “potassium phosphate buffer,” for “NaCl, 20 mM Tris-Cl,”, “6.5,” for “7.5,”, “glycerol,” for “glycerol, and”, “BSA, 5 mM MgCl2, and 40 mM sodium hydrocarbonate.” for “BSA).”

[18] = biological target: T2, IDH1 wild-type; assay: IDH1/2 activity assay, reverse reaction (α-KG, NADPH), stopped-flow, IDH1 wild-type; type: biochemical; conditions: Reductive (→ NADP+); WT; est.
Description: as §4

[19] = read-out: ICDH IC50 (uM) @ 4 uM (10x Km) NADPH, 4 uM (10x Km) NADPH
[20] = read-out: ICDH IC50 (uM) @ 40 uM NADPH, 40 uM (100x Km) NADPH
[21] = for isocitrate, cofactor 500 uM
[22] = with radiation, vs radiation alone
[23] = without MGMT promoter methylation
[24] = α-KG product inhibition, competitive with isocitrate, read-out: Ki
[25] = for α-KG, cofactor 500 uM, pH 6.5
[26] = α-KG varied, cofactor 500 uM, pH 6.5

T3 sequence (O75874 whole entry R132C): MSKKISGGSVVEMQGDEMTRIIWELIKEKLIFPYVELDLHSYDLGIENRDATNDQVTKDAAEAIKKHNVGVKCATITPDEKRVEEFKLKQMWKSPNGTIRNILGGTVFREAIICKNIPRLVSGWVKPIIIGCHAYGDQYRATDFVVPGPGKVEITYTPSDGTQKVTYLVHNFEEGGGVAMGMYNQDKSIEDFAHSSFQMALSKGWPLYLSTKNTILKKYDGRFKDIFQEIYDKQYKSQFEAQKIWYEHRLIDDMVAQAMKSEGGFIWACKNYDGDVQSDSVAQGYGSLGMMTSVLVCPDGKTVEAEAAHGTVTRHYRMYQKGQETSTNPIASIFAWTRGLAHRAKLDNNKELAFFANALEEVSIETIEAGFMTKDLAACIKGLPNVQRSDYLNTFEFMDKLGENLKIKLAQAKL
T5 sequence (O75874 whole entry R132H): as the sequence (O75874 whole entry R132C) above, with C132H counted along it
ICDH1 R132H, sequence (O75874 whole entry R132H): as the sequence (O75874 whole entry R132C) above, with C132H counted along it
T4 sequence (O75874 whole entry R132S): as the sequence (O75874 whole entry R132C) above, with C132S counted along it
T1 sequence (O75874 whole entry): as the sequence (O75874 whole entry R132C) above, with C132R counted along it
T2 sequence (O75874 whole entry): as the sequence (O75874 whole entry R132C) above, with C132R counted along it

Compound: O=C(O)CC[C@@H](O)C(=O)O [(R)-2-hydroxyglutarate]
- effect on oxidative decarboxylation of isocitrate by wild-type ICDH1 [3]: did not show any effect

Compound: [Cl-].[Cl-].[Mg+2] [MgCl2]
- Km ([4]; Oxidative (→ NADPH), read-out: KM,MgCl2): 450 µM

Compound: NC(=O)C1=CN([C@@H]2O[C@H](COP(=O)(O)OP(=O)(O)OC[C@H]3O[C@@H](n4cnc5c(N)ncnc54)[C@H](O)[C@@H]3O)[C@@H](O)[C@H]2O)C=CC1 [NADH]
- Consumption of NADH, Mean [5]: 0.709 Umol/min/mg
- Consumption of NADH, individual runs [5]: 0.7183 Umol/min/mg and 0.6997 Umol/min/mg
- Rate, consumption of NADH, Mean [5]: 0.001103 ΔA/sec
- Rate, consumption of NADH, individual runs [5]: 0.001117 ΔA/sec and 0.001088 ΔA/sec
- consumption of NADH in the presence of alpha-ketoglutarate [6]: no measurable consumption
- consumption of NADH in the presence of alpha-ketoglutarate [7]: no measurable consumption

Compound: NC(=O)c1ccc[n+]([C@@H]2O[C@H](COP(=O)([O-])OP(=O)(O)OC[C@H]3O[C@@H](n4cnc5c(N)ncnc54)[C@H](OP(=O)(O)O)[C@@H]3O)[C@@H](O)[C@H]2O)c1 [NADP+]
- Km ([4]; Oxidative (→ NADPH), read-out: KM,NADP+): 21 µM

Compound: NC(=O)C1=CN([C@@H]2O[C@H](COP(=O)(O)OP(=O)(O)OC[C@H]3O[C@@H](n4cnc5c(N)ncnc54)[C@H](OP(=O)(O)O)[C@@H]3O)[C@@H](O)[C@H]2O)C=CC1 [NADPH]
- Km ([8]; read-out: KM,NADPH): 0.3 µM

Compound: O=C(O)C(=O)C(C(=O)O)C(O)C(=O)O (stereo not drawn) [Oxalomalate, oxalomalate]
- Ki ([3]; IDH1 wt 1.5 ug/ml, NADP 0.5 mM, DL-isocitrate 5-650 uM, read-out: Oxalomalate Ki): 955 µM
- Ki ([9]; IDH1R132H 60 ug/ml, NADP 0.5 mM, DL-isocitrate 5-650 uM, read-out: Oxalomalate Ki): 951 µM
- susceptibility to inhibition by oxalomalate ([9]; R132H vs wt): essentially unaffected
- Ki ([10]; IDH1R132S 30 ug/ml, NADP 0.5 mM, DL-isocitrate 5-650 uM, read-out: Oxalomalate Ki): 510 µM
- increase in susceptibility to inhibition by oxalomalate ([10]; R132S vs wt): two-fold

Compound: O=C(O)CC(C(=O)O)C(O)C(=O)O (stereo not drawn) [isocitrate]
- Km [3, 21]: 56.8 µM
- Km [9, 21]: 172 µM
- Km ([11]; read-out: KM,isocitrate): 57 µM
- Km ([4]; read-out: KM,isocitrate, Oxidative (→ NADPH)): 87000 µM

Compound: O=C(O)CCC(O)C(=O)O (stereo not drawn) [reaction product 2-HG, 2-hydroxyglutarate]
- effect on oxidative decarboxylation of isocitrate by wild-type ICDH1 [3]: inhibit

Compound: Cn1nnc2c(C(N)=O)ncn2c1=O [temozolomide, Temozolomide]
- tolerability ([12]; in vivo): well tolerated
- likelihood of being alive in 2 years [12, 22]: 26%
- median progression-free survival [12, 22]: 6.9 mo
- overall survival [12, 22]: 14.6 mo
- 2-year survival rate ([13]; with MGMT promoter methylation): 46%
- median survival ([13]; with MGMT promoter methylation): 21.7 months
- 2-year survival rate [13, 23]: 13.8%
- median survival [13, 23]: 12.7 months
- 6-month survival [14]: 21%

Compound: O=C(O)CCC(=O)C(=O)O [α-KG, α-Ketoglutarate]
- Ki [3, 24]: 612 µM
- Ki [9, 24]: 28.6 µM
- increase in sensitivity to feedback inhibition as compared to the wild-type enzyme ([9]; α-KG, R132H vs wild-type): 20 fold
- Ki [10, 24]: 45.3 µM
- increase in sensitivity to feedback inhibition as compared to the wild-type enzyme ([10]; α-KG, R132S vs wild-type): 13 fold
- Km [15, 25]: 965 µM
- Hill Constant ([15]; α-KG varied): 1.8
- Vmax [15, 26]: 1.3 µmol/min/mg
- Km [16, 25]: 181 µM
- Ki ([16]; uncompetitive substrate inhibition by α-KG): 24600 µM
- Hill Constant ([16]; α-KG varied): 0.479
- Vmax [16, 26]: 2.7 µmol/min/mg
- NADPH consumption in reduction of α-KG [17]: unable to consume NADPH
- Ki ([11]; read-out: Ki,αKG): 610 µM
- Ki ([4]; Oxidative (→ NADPH), read-out: Ki,αKG): 61 µM
- Km ([8]; read-out: KM,αKG): 295 µM

Compound: R132C
- kcat ([4]; Oxidative (→ NADPH)): 710 s⁻¹
- kcat [8]: 550 s⁻¹

Compound: WT
- kcat [11]: 130000 s⁻¹
- kcat [18]: ~7 (est.) s^−1

Next, values leading:

- IC50 Ratio (40/4) [1]: 17.42
- IC50 [1, 19]: 5.74 µM
- IC50 [1, 20]: > 100 µM
- IC50 [2]: 16.2 µM
Compound: Cc1c(/C=C2\Sc3ccccc3C2=O)c(O)n2c(nc3ccccc32)c1C#N

- IC50 Ratio (40/4) [1]: 3.38
- IC50 [1, 19]: 12.3 µM
- IC50 [1, 20]: 41.4 µM
- IDH1wt IC50 @ 1x Km (uM) [2]: NO inhibition
Compound: Cc1ccc(C2=NN(c3ccccc3)C(c3cn(CCC(=O)O)nc3-c3ccccc3)C2)cc1 (stereo not drawn)

- IC50 Ratio (40/4) [1]: 1.15
- IC50 [1, 19]: 12.8 µM
- IC50 [1, 20]: 14.7 µM
- IC50 [2]: 19.2 µM
Compound: O=C1NC(=S)S/C1=C\c1cccc(OC(=O)c2cccc(F)c2)c1

- IC50 Ratio (40/4) [1]: 1.28
- IC50 [1, 19]: 15 µM
- IC50 [1, 20]: 19.2 µM
- IC50 [2]: 46.8 µM
Compound: Cc1cc(C(=O)O)ccc1-c1ccc(/C=C2/NC(=O)N(Cc3ccc(Br)cc3)C2=O)o1

- IC50 Ratio (40/4) [1]: 1.39
- IC50 [1, 19]: 23.8 µM
- IC50 [1, 20]: 33.2 µM
- IC50 [2]: 69.3 µM
Compound: O=C1NC(=S)S/C1=C/c1cccc(OCc2ccc([N+](=O)[O-])cc2)c1
